Columns and labels:
Format in all cases: in vivo, mice
[1] = tested on: S. aureus MW2 skin infection; experiment: Skin-abraded murine infection, prophylactic (acute) model, bacterial load; details: for Reduction of S. aureus MW2 burden vs vehicle, prophylactic model: single treatment 10 minutes after inoculation, n = 12; for Reduction of S. aureus MW2 burden, repeat of prophylactic model: n = 8
Procedure: (§1) 599 In vivo murine skin infection and treatment
(§2) 600 We used a topical skin-abraded murine infection model with minor modifications to test
(§3) 601 the in vivo efficacy of the CIT-8 peptide (25). We performed all mouse studies following the
(§4) 602 protocol approved by the Institutional Animal Care and Use Committee. In brief, we anesthetized
(§5) 603 female C57BL/6 mice (6 weeks) (Jackson Laboratory, Bar Harbor, ME, USA) with ketamine-
(§6) 604 xylazine (90 mg/kg ketamine and 10 mg/kg xylazine) via intraperitoneal injection. We shaved the
(§7) 605 dorsal side of the mice in the middle of the back (area=2 cm2). To disrupt skin integrity, we tape-
(§8) 606 stripped with Tensoplast® seven times in succession, replacing the tape each time, resulting in
(§9) 607 visibly damaged skin. We infected the damaged skin area with 1 × 10^7 CFU of S. aureus MW2
(§10) 608 (exponential phase bacteria in PBS) with an inoculum of 50 µl using a pipette tip. Ten minutes
(§11) 609 (prophylactic model) and 24 h (established model) after bacterial inoculation, we applied 30 mg
(§12) 610 of 1 and 2% (w/w) CIT-8 ointment in a white petroleum jelly base (Cat no. 19-090-843, Fisher
(§13) 611 Scientific, MA, USA) to the skin. We also included animal groups treated with only petroleum
(§14) 612 jelly or with 2% commercial mupirocin ointment as negative and positive controls, respectively.
(§15) 613 For pain management, we used the analgesic buprenorphine SR (0.05 mg/kg).
(§16) 614 After 24 h of treatment, we euthanized the animals, separated the skin from the underlying
(§17) 615 fascia and muscle tissue, and excised about 2 cm2 of skin from the infected area. We ground the
(§18) 616 skin in 1ml of PBS buffer (Gibco, MD, USA). We serially diluted 100 µl of the solution in PBS
(§19) 617 and plated it on Remel™ TSA plates (Fisher, MA, USA) to estimate viable colony counts after 18
(§20) 618 h of incubation at 37 °C. Further, we added 10 µl of EDTA-Free, protease inhibitor cocktail Set III
(§21) 619 (Millipore Sigma, MA, USA) to 500 µl of the ground skin PBS solution for cytokine estimation.
(§22) 620 The Cytokine Core, LLC (Indianapolis, IN, USA) performed the cytokine concentration analysis

[2] = tested on: S. aureus MW2 skin infection; experiment: Skin-abraded murine infection, established infection model, bacterial load; design: Bacterial load from skin specimens, established infection model / bacterial load in skin, Sup. Fig. 12: unit not given here; details: for Reduction of S. aureus MW2 vs vehicle, established infection model: single dose 24 hours after inoculation, n = 8; for bacterial load in skin, Sup. Fig. 12: mice
Procedure: as §1, §2, §3, §4, §5, §6, §7, §8, §9, §10, §11, §12, §13, §14, §15, §16, §17, §18, §19, §20, §21, §22

TNFA, IL6, MCP1 = experiment: Cytokine estimation in infected murine skin (prophylactic model); design: TNFA in murine skin / IL6 in murine skin / MCP1 in murine skin: unit not given here; details: 2% w/w
Procedure: as §1, §2, §3, §4, §5, §6, §7, §8, §9, §10, §11, §12, §13, §14, §15, §16, §17, §18, §19, §20, §21, §22

[3] = tested on: S. aureus MW2 infected skin; experiment: Histopathology of skin (H&E, Gram stain), prophylactic model; details: 2% w/w formulation, H&E and Gram stains
Text: 235 Supplemental Figure 13. Histopathology of vehicle and CIT-8 treated skin in the skin-abraded
236 prophylactic murine model infected with S. aureus MW2.
237 Panel A: Representative 10× images of H&E-stained murine skin sections from all n=32 animals
238 (n=8 per group). Scale bars: 0.05 mm. Panel B: Representative 40× images of Gram-stained murine
239 skin sections. Scale bars: 0.01 mm. White arrows (1-5) indicate key histopathological features; 1:
240 Disorganized epidermal layer with epidermal disruption; 2: Dense infiltration of
241 polymorphonuclear (PMN) and mononuclear (MN) cells in both the epidermis and dermis,
242 indicative of heightened inflammation; 3: More intact epidermis; 4: Reduced numbers of PMN
243 and MN cells; 5: Bacterial patches.
(1 picture or pasted object on this page, not shown here)

H-GLFKVIKKLLKVI-NH2 [CIT-8]
Bacterial load from skin specimens, prophylactic model ([1]; 1% ointment 10 minutes after infection, animal 1): 11428571
Bacterial load from skin specimens, prophylactic model ([1]; 1% ointment 10 minutes after infection, animal 2): 16000000
Bacterial load from skin specimens, prophylactic model ([1]; 1% ointment 10 minutes after infection, animal 3): 1555556
Bacterial load from skin specimens, prophylactic model ([1]; 1% ointment 10 minutes after infection, animal 4): 3636364
Bacterial load from skin specimens, prophylactic model ([1]; 1% ointment 10 minutes after infection, animal 5): 6000000
Bacterial load from skin specimens, prophylactic model ([1]; 1% ointment 10 minutes after infection, animal 6): 3111111
Bacterial load from skin specimens, prophylactic model ([1]; 1% ointment 10 minutes after infection, animal 7): 2250000
Bacterial load from skin specimens, prophylactic model ([1]; 1% ointment 10 minutes after infection, animal 8): 2200000
Bacterial load from skin specimens, prophylactic model ([1]; 1% ointment 10 minutes after infection, animal 9): 4210526
Bacterial load from skin specimens, prophylactic model ([1]; 1% ointment 10 minutes after infection, animal 10): 6153846
Bacterial load from skin specimens, prophylactic model ([1]; 1% ointment 10 minutes after infection, animal 11): 4000000
Bacterial load from skin specimens, prophylactic model ([1]; 1% ointment 10 minutes after infection, animal 12): 6060606
Reduction of S. aureus MW2 burden vs vehicle, prophylactic model ([1]; 1% w/w ointment): 1.7 log
Reduction of S. aureus MW2 burden, repeat of prophylactic model ([1]; 1% w/w): 1.4 log
Bacterial load from skin specimens, prophylactic model ([1]; 2% ointment 10 minutes after infection, animal 1): 1000000
Bacterial load from skin specimens, prophylactic model ([1]; 2% ointment 10 minutes after infection, animal 2): 1142857
Bacterial load from skin specimens, prophylactic model ([1]; 2% ointment 10 minutes after infection, animal 3): 2400000
Bacterial load from skin specimens, prophylactic model ([1]; 2% ointment 10 minutes after infection, animal 4): 444444
Bacterial load from skin specimens, prophylactic model ([1]; 2% ointment 10 minutes after infection, animal 5): 1684211
Bacterial load from skin specimens, prophylactic model ([1]; 2% ointment 10 minutes after infection, animal 6): 4000000
Bacterial load from skin specimens, prophylactic model ([1]; 2% ointment 10 minutes after infection, animal 7): 666667
Bacterial load from skin specimens, prophylactic model ([1]; 2% ointment 10 minutes after infection, animal 8): 923077
Bacterial load from skin specimens, prophylactic model ([1]; 2% ointment 10 minutes after infection, animal 9): 909091
Bacterial load from skin specimens, prophylactic model ([1]; 2% ointment 10 minutes after infection, animal 10): 4923077
Bacterial load from skin specimens, prophylactic model ([1]; 2% ointment 10 minutes after infection, animal 11): 3666667
Bacterial load from skin specimens, prophylactic model ([1]; 2% ointment 10 minutes after infection, animal 12): 1200000
Reduction of bacterial burden, mouse model of MRSA skin infection ([1]; 2% w/w in petroleum jelly (abstract)): 2.3 log10
Reduction of S. aureus MW2 burden vs vehicle, prophylactic model ([1]; 2% w/w ointment): 2.3 log
Reduction of S. aureus MW2 burden, repeat of prophylactic model ([1]; 2% w/w): 2.1 log
Bacterial load from skin specimens, established infection model ([2]; 1% ointment 24 hours after infection, animal 1): 573476702
Bacterial load from skin specimens, established infection model ([2]; 1% ointment 24 hours after infection, animal 2): 722891566
Bacterial load from skin specimens, established infection model ([2]; 1% ointment 24 hours after infection, animal 3): 990099010
Bacterial load from skin specimens, established infection model ([2]; 1% ointment 24 hours after infection, animal 4): 73752712
Bacterial load from skin specimens, established infection model ([2]; 1% ointment 24 hours after infection, animal 5): 440528634
Bacterial load from skin specimens, established infection model ([2]; 1% ointment 24 hours after infection, animal 6): 407784986
Bacterial load from skin specimens, established infection model ([2]; 1% ointment 24 hours after infection, animal 7): 586080586
Bacterial load from skin specimens, established infection model ([2]; 1% ointment 24 hours after infection, animal 8): 58441558
Reduction of S. aureus MW2 vs vehicle, established infection model ([2]; 1% w/w ointment): 0.85 log
bacterial load in skin, Sup. Fig. 12 ([2]; 1%, animal 1): 3454231
bacterial load in skin, Sup. Fig. 12 ([2]; 1%, animal 2): 9594096
bacterial load in skin, Sup. Fig. 12 ([2]; 1%, animal 3): 4268293
bacterial load in skin, Sup. Fig. 12 ([2]; 1%, animal 4): 37383178
bacterial load in skin, Sup. Fig. 12 ([2]; 1%, animal 5): 4592423
bacterial load in skin, Sup. Fig. 12 ([2]; 1%, animal 6): 4992200
bacterial load in skin, Sup. Fig. 12 ([2]; 1%, animal 7): 5211726
bacterial load in skin, Sup. Fig. 12 ([2]; 1%, animal 8): 8092486
Bacterial load from skin specimens, established infection model ([2]; 2% ointment 24 hours after infection, animal 1): 198248802
Bacterial load from skin specimens, established infection model ([2]; 2% ointment 24 hours after infection, animal 2): 54495913
Bacterial load from skin specimens, established infection model ([2]; 2% ointment 24 hours after infection, animal 3): 66006601
Bacterial load from skin specimens, established infection model ([2]; 2% ointment 24 hours after infection, animal 4): 87431694
Bacterial load from skin specimens, established infection model ([2]; 2% ointment 24 hours after infection, animal 5): 13757524
Bacterial load from skin specimens, established infection model ([2]; 2% ointment 24 hours after infection, animal 6): 41237113
Bacterial load from skin specimens, established infection model ([2]; 2% ointment 24 hours after infection, animal 7): 64923354
Bacterial load from skin specimens, established infection model ([2]; 2% ointment 24 hours after infection, animal 8): 70546737
Reduction of S. aureus MW2 vs vehicle, established infection model ([2]; 2% w/w ointment): 1.8 log
bacterial load in skin, Sup. Fig. 12 ([2]; 2%, animal 1): 3143418
bacterial load in skin, Sup. Fig. 12 ([2]; 2%, animal 2): 1148325
bacterial load in skin, Sup. Fig. 12 ([2]; 2%, animal 3): 935065
bacterial load in skin, Sup. Fig. 12 ([2]; 2%, animal 4): 898204
bacterial load in skin, Sup. Fig. 12 ([2]; 2%, animal 5): 917874
bacterial load in skin, Sup. Fig. 12 ([2]; 2%, animal 6): 1020408
bacterial load in skin, Sup. Fig. 12 ([2]; 2%, animal 7): 1787044
bacterial load in skin, Sup. Fig. 12 ([2]; 2%, animal 8): 4694836
IL6 in murine skin (TNFA, IL6, MCP1; animal 1): 3.152
MCP1 in murine skin (TNFA, IL6, MCP1; animal 1): 6.488
TNFA in murine skin (TNFA, IL6, MCP1; animal 1): 126
IL6 in murine skin (TNFA, IL6, MCP1; animal 2): 2.798
MCP1 in murine skin (TNFA, IL6, MCP1; animal 2): 3.271
TNFA in murine skin (TNFA, IL6, MCP1; animal 2): 153.385
IL6 in murine skin (TNFA, IL6, MCP1; animal 3): 1.183
MCP1 in murine skin (TNFA, IL6, MCP1; animal 3): 2.973
TNFA in murine skin (TNFA, IL6, MCP1; animal 3): 114.591
IL6 in murine skin (TNFA, IL6, MCP1; animal 4): 2.409
MCP1 in murine skin (TNFA, IL6, MCP1; animal 4): 4.047
TNFA in murine skin (TNFA, IL6, MCP1; animal 4): 182.154
IL6 in murine skin (TNFA, IL6, MCP1; animal 5): 1.071
MCP1 in murine skin (TNFA, IL6, MCP1; animal 5): 1.51
TNFA in murine skin (TNFA, IL6, MCP1; animal 5): 103
IL6 in murine skin (TNFA, IL6, MCP1; animal 6): 5.43
MCP1 in murine skin (TNFA, IL6, MCP1; animal 6): 10.445
TNFA in murine skin (TNFA, IL6, MCP1; animal 6): 372.2
Reduction of IL6 level in skin (TNFA, IL6, MCP1; n = 6): 5 fold
Reduction of MCP1 level in skin (TNFA, IL6, MCP1; n = 6): 5 fold
Reduction of TNFA level in skin (TNFA, IL6, MCP1; n = 6): 2.5 fold
Histopathology of treated skin [3]: more intact epidermis, reduced numbers of PMN and MN (less inflammation), and no bacterial biofilm patches

— PMC12165799, “Antimicrobial peptide developed with machine learning sequence optimization targets drug resistant Staphylococcus aureus in mice” (The Journal of Clinical Investigation, 2025)
